In this test the test system is secretion levels of IL-6 in PBMC cells. The test can be described thus: Inhibition of LPS+IL-1β-induced IL-6 secretion in PBMC (IL-6 ELISA). It is filed as cell-based. The note with it: human PBMC, 24 h compound pre-incubation, 20 h stimulation. As for the experimental part:
This experiment was carried out in RPMI 1640 medium containing 10% FBS/1% penicillin/streptomycin, with each of the compounds at an initial test concentration of 1 μM. The compound DMSO was dissolved to form a stock solution, which was gradiently diluted 5-fold with the culture medium to a 4× working solution concentration. The diluted solution was added to a 96-well plate with 50 μL per well. PBMC (batch No.: HPP20062307, Sichuan Hope Bio-tech Co., Ltd.) cells were counted, and diluted to a concentration of 2×10^6/mL. The diluted cells were added to the above compound-containing 96-well plate with 150 μL per well, fully mixed, and incubated in an incubator with 5% CO2 at 37° C. for 24 h. Then, LPS and […] were further added to final concentrations of 10 ng/mL and 20 ng/mL, respectively, and the cells were further incubated in the incubator with 5% CO2 at 37° C. for 20 h. Then, after centrifugation at 2,000 rpm for 4 min, the supernatant was diluted 110×, and detected using an IL-6 ELISA kit. An OD450 value was read, and converted to an IL-6 concentration based on a standard curve, to calculate an IC50 value by fitting a dose-effect curve using GraphPad 5.0.

One may read the IC50 as the concentration that gives 50% inhibition. A high value points to weaker potency in that assay.

Structures are written as SMILES.

`Cc1nn(C2CCC(=O)NC2=O)c2cccc(C3CCN(CC4CCC(n5cc6cc(NC(=O)c7cnn8cccnc78)c(N7CCOCC7)cc6n5)CC4)CC3)c12` (stereo not shown) [TM-26] came in with an IC50 of 12.2 nM. In the case of `COc1cc2nn([C@H]3CC[C@H](CN4CCN(c5cccc6c5c(C)nn6C5CCC(=O)NC5=O)CC4)CC3)cc2cc1NC(=O)c1cnn2cccnc12` (stereo partly shown) [TM-30] it was 3.69 nM. `COc1cc2nn([C@H]3CC[C@H](CN4CCN(c5cccc6c5c(C)nn6C5CCC(=O)NC5=O)CC4)CC3)cc2cc1NC(=O)c1cccc(C)n1` (stereo partly shown) [TM-32]: half-maximal inhibition (IC50) required 22.2 nM. In the case of `COc1cc2nn([C@H]3CC[C@H](CN4CC5CN(c6cccc7c6c(C)nn7C6CCC(=O)NC6=O)CC5C4)CC3)cc2cc1NC(=O)c1cccc(C)n1` (stereo partly shown) [TM-35] it was 29.5 nM. As for `COc1cc2nn([C@H]3CC[C@H](CN4CC5CN(c6cccc7c6c(C)nn7C6CCC(=O)NC6=O)CC5C4)CC3)cc2cc1NC(=O)c1cccc(C(F)(F)F)n1` (stereo partly shown) [TM-36], the figure is 4.99 nM; as for `COc1cc2nn([C@H]3CC[C@H](CN4CC5CN(c6cccc7c6c(C)nn7C6CCC(=O)NC6=O)CC5C4)CC3)cc2cc1NC(=O)c1cnn2cccnc12` (stereo partly shown) [TM-37], 4.99 nM. In the case of `COc1cc2nn([C@H]3CC[C@H](CN4CC5CN(c6ccc7c(c6)c(C)nn7C6CCC(=O)NC6=O)CC5C4)CC3)cc2cc1NC(=O)c1cccc(C(F)(F)F)n1` (stereo partly shown) [TM-39] it was 115 nM; in that of `Cc1nn(C2CCC(=O)NC2=O)c2ccc(N3CC4CN(C[C@H]5CC[C@H](n6cc7cc(NC(=O)c8cnn9cccnc89)c(N8CCOCC8)cc7n6)CC5)CC4C3)cc12` (stereo partly shown) [TM-40], 138 nM. As for `Cc1nn(C2CCC(=O)NC2=O)c2cccc(N3CCN(C[C@H]4CC[C@H](n5cc6cc(NC(=O)c7cnn8cccnc78)c(N7C[C@@H]8C[C@H]7CO8)cc6n5)CC4)CC3)c12` (stereo partly shown) [TM-45], half-maximal inhibition (IC50) required 5.48 nM.

In the case of `Cc1nn(C2CCC(=O)NC2=O)c2cccc(N3CCN(C[C@H]4CC[C@H](n5cc6cc(NC(=O)c7cnn8cccnc78)c(N7CCOC8(CC8)C7)cc6n5)CC4)CC3)c12` (stereo partly shown) [TM-47], half-maximal inhibition (IC50) was put at 45.8 nM. `Cc1nn(C2CCC(=O)NC2=O)c2cccc(N3CC4CN(C[C@H]5CC[C@H](n6cc7cc(NC(=O)c8cnn9cccnc89)c(N8CCOC9(CC9)C8)cc7n6)CC5)CC4C3)c12` (stereo partly shown) [TM-48] returned an IC50 of 47.8 nM.

`Cc1nn(C2CCC(=O)NC2=O)c2cccc(N3CCN(C[C@H]4CC[C@H](n5cc6cc(NC(=O)c7cnn8cccnc78)c(C(F)F)cc6n5)CC4)CC3)c12` (stereo partly shown) [TM-49] yielded an IC50 of 16.5 nM. As to `Cc1nn(C2CCC(=O)NC2=O)c2cccc(N3CC4CN(C[C@H]5CC[C@H](n6cc7cc(NC(=O)c8cnn9cccnc89)c(C(F)F)cc7n6)CC5)CC4C3)c12` (stereo partly shown) [TM-50], inhibition was half-maximal at 3.81 nM (IC50). This IC50 is about 4.3-fold lower than that of the compound before.

The compound `Cc1nn(C2CCC(=O)NC2=O)c2cccc(N3CCC(CN4CCC(n5cc6cc(NC(=O)c7cnn8cccnc78)c(N7CCOCC7)cc6n5)CC4)CC3)c12` (stereo not shown) [TM-51] gave an IC50 of 9.15 nM. Against the preceding compound, the IC50 is about 2.4-fold higher. In the case of `Cc1nn(C2CCC(=O)NC2=O)c2cccc(N3CCN(C[C@H]4CC[C@H](n5cc6cc(NC(=O)c7cnn8cccnc78)c(N7CCO[C@@H](C)C7)cc6n5)CC4)CC3)c12` (stereo partly shown) [TM-52] it was 10.5 nM; in that of `Cc1nn(C2CCC(=O)NC2=O)c2cccc(N3CC4CN(C[C@H]5CC[C@H](n6cc7cc(NC(=O)c8cnn9cccnc89)c(N8CCO[C@@H](C)C8)cc7n6)CC5)CC4C3)c12` (stereo partly shown) [TM-53], 38.5 nM; in that of `Cc1nn(C2CCC(=O)NC2=O)c2cccc(OC3CCN(C[C@H]4CC[C@H](N5Cc6cc(NC(=O)c7cnn8cccnc78)c(N7CCOCC7)cc6C5=O)CC4)CC3)c12` (stereo partly shown) [TM-60], 4.4 nM. As for `Cc1nn(C2CCC(=O)NC2=O)c2cccc(N3CC4CN(C[C@H]5CC[C@H](n6cc7cc(NC(=O)c8cnn9cccnc89)c(N8C[C@H]9C[C@@H]8CO9)cc7n6)CC5)CC4C3)c12` (stereo partly shown) [TM-62], the figure is 11.9 nM; as for `Cc1nn(C2CCC(=O)NC2=O)c2cccc(N3CCN(C[C@H]4CC[C@H](N5Cc6cc(NC(=O)c7cnn8cccnc78)c(N7CCO[C@H](C)C7)cc6C5=O)CC4)CC3)c12` (stereo partly shown) [TM-63], 0.9 nM.

The values above are taken from patent US20260146044A1, “AROMATIC COMPOUND, PHARMACEUTICAL COMPOSITION CONTAINING SAME, AND USE THEREOF” (Increland, priority 2023, published 2026).
